Measurements as given in patent publication US9314453B2, “Tetrahydropyridoethers for treatment of AMD” (KATAIRO GmbH, priority 2008, dated 2016).

How the values were obtained:
[1] = test system: photoreceptors and post-receptoral systems; assay: Electroretinography (ERG) after intravitreal injection in Wistar rats; type: in vivo; conditions: for ERG a-wave and b-wave amplitudes after injection, compared with vehicle: intravitreal, 50 μg/ml or 0.25 mM in the vitreous, highest light intensity, initial decrease; for ERG a-wave and b-wave amplitudes, recovery: three weeks after the intravitreal injection
Experimental: (§1) The effects of lipofuscin in vivo, i.e. in the living eye of experimental rats after an intravitreal injection of the compounds were investigated. Vehicle solution or solutions of either substance 1 or Soraprazan were injected intravitreally in half-year old Wistar rats. The final concentration in the vitreous was the same as in the cell cultures, i.e. 50 μg/ml or 0.25 mM. In order to avoid mutual interactions between the two eyes of an animal, both eyes of an animal were treated the same way, with three animals (i.e. six eyes) per group.
(§2) Two kinds of evaluation were performed in these animals—electroretinography (ERG) for functional testing, and counting of lipofuscin particles to check whether the administration of the compounds leads to a decrease of lipofuscin contents in the RPE.
Before the injection, electroretinograms were measured to obtain base line values. Additional ERG measurements were performed one, two and three weeks after the intravitreal injections. Some results are shown in the diagrams below.

[2] = test system: Retinal pigment epithelium (RPE) cells from human donor eyes; assay: Lipofuscin content and pigmentation in cultured RPE cells from human donor eyes (digital image analysis); type: cell-based; conditions: for Lipofuscin and pigment content in cultured RPE cells: 50 μg/ml or 0.25 mM, permanent exposure, versus control; for Lipofuscin and melanin in cultured human RPE cells: after 26 days of treatment (FIG. 18)
Experimental: Retinal pigment epithelium (RPE) cells from human donor eyes were cultured and exposed permanently to either vehicle solution, solution of Soraprazan or solution of 7R,8R,9R)-2,3-Dimethyl-7-ethoxy-8-hydroxy-9-phenyl-7,8,9,10-tetrahydro-imidazo-[1,2-h][1,7]-naphthyridin (called substance 1) at a concentration of 50 μg/ml or 0.25 mM. At several time points, digital images were taken and analysed with respect to the portion of lipofuscin and pigmentation in general. As the results did strongly depend on the random choice of microscopic field and the variations of the data were very high, the values of four consecutive days of five independent experiments were averaged. The results for the lipofuscin content in the RPE cells are shown in the diagram (FIG. 18).
Retinal pigment epithelium (RPE) cells from human donor eyes were cultured and exposed permanently to either vehicle solution, solution of Soraprazan or solution of substance 1 (concentration 50 μg/ml or 0.25 mM). At several time points, digital images were taken and analysed with respect to the portion of lipofuscin and pigmentation in general.

[3] = test system: Heavily pigmented human donor RPE cells; assay: Electron microscopy / semithin sections of heavily pigmented human donor RPE cells, degradational clusters; type: cell-based; conditions: 28 days
Experimental: Heavily pigmented human donor RPE cells (passage)) were treated with 50 μg/ml substance 1 or 30 μg/ml Soraprazan and cultured for 28 days. Cells without treatment were used as controls. Cells were fixed for electron microscopy in 2% glutaraldehyde and embedded in EPON. Semithin and ultrathin sections were cut.
In the semithin sections, the clusters could be observed as well. Here, the pigmented cells bearing one or more clusters were counted. Degradational clusters were detected in 90.5%+/−21.3 of cells treated with substance 1 and in 80.1%+/−22.6 of cells treated with Soraprazan, but only in 16.8%+/−21.6 of untreated cells (p<0.0001).

RPE cells [4] = assay: 52-week oral study in the Cynomolgus monkey, conventional histopathology; type: in vivo
Experimental: Soraprazan was administrated in oral application of 6, 12 and 24 mg/kg/day for 52 weeks in the Cynomolgus monkey.
Some monkeys from the control and the high-dose group were subjected to a recovery period of 3 months.
Two of these 3 monkeys had depigmentation of RPE cells although the photoreceptors facing the depigmented RPE stayed healthy. These RPE cells had released melanin as well as lipofuscin granules to secondary cells that had migrated between Bruch's membrane and the RPE cell layer or into the subretinal space.

RPE = assay: Counting of fluorescent lipofuscin particles in RPE after intravitreal injection in Wistar rats; type: in vivo; conditions: three weeks after one single intravitreal injection, 50 μg/ml or 0.25 mM in the vitreous
Experimental: as §1, §2
The eyes were isolated after three weeks, fixed in formalin and embedded in paraffin. Paraffin sections were made, and digital fluorescence images were evaluated. The number of fluorescent lipofuscin particles per 50 μm RPE layer length was counted. The results are shown in the diagram (FIG. 21).

RPE cells [5] = assay: Fluorescence microscopy of lipofuscin granules in RPE sections of treated monkeys; type: in vivo, Cynomolgus monkey
Excerpt: Section was illuminated under the fluorescence microscope with 360 nm wavelength light. Lipofuscin granules were detected by the emission of gold-yellow light with […] wavelength. […] Macrophages between the RPE and Bruch's membrane, however, contained many lipofuscin granules. The majority of these granules were smaller than those in RPE cells of untreated animals.

[6] = test system: retinal pigment epithelium; assay: Transmission electron microscopy of RPE and photoreceptors after 52 weeks oral treatment; type: in vivo, Cynomolgus monkey
Experimental: In the present example the effect of Soraprazan on pigmentation of the retinal pigment epithelium in the Cynomolgus monkey (4 years of age) after oral application of 24 mg/kg/day for 52 weeks is shown.
Right eyes from the following animals were subjected to transmission electron microscopy:
Right eyes were removed carefully. A circular slit was cut at the limbus in order to immerse the inner eye with the fixation fluid (5% Glutaraldehyd in […] Cacodylat buffer). From these eyes, specimens ([…] in diameter) from the macula and from the mid-area were cut out, were postfixed in OsO4, treated with uranylacetate, dehydrated and embedded in Epon resin.
Semithin sections (0.7 μm) were prepared from Epon resin blocks. They were stained with toluidin blue and evaluated under a light microscope. Subsequently, ultrathin sections (50 nm) were cut from Epon resin blocks, contrasted and evaluated in a transmission electron microscope.
The number of lipofuscin granules that were smaller than 0.4 μm in diameter was counted in the cytoplasm of ultrathin sections of RPE cells from untreated and treated monkeys. In addition the same counts were performed in macrophages located between RPE and Bruch's membrane of treated monkeys. The results were 4.9±0.6/50 μm^2, 0.6±0.2/50 μm^2; […]. Lipofuscin granules larger than 1 μm in diameter were absent in RPE cells of treated animals. In contrast many of them were present in RPE cells of untreated monkeys.

[7] = test system: RPE cell cultures from human donor eyes; assay: Phagocytosis of fluorescent latex beads by RPE cell cultures; type: cell-based
Experimental: Then the treatment-dependent ability of the cells to phagocytose, which is a crucial function of the RPE, was checked. For this purpose, RPE cell cultures from human donor eyes were exposed to vehicle or substance 1. After three weeks, fluorescent latex beads were added to the cell cultures for four hours. The cells were then washed to remove non-phagocytosed beads and fixed. Fluorescent images of the cells were taken and analysed for the contents of lipofuscin and the number of phagocytosed beads. The results shown in FIG. 19 are presented as the relationship between lipofuscin content and phagocytosed bead number in both controls and substance-1-treated cells.

Cc1nc2c3c(ccn2c1C)[C@H](OC(C)C)[C@H](O)[C@@H](c1ccccc1)N3 [Example 7, (7S,8R,9R)-2,3-Dimethyl-8-hydroxy-9-phenyl-7-(2-propoxy)-7,8,9,10-tetrahydro-imidazo[1,2-h][1,7]naphthyridine]
melting point: 168 to 169 °C

CCO[C@H]1c2ccn3c(C)c(C)nc3c2N[C@H](c2ccccc2)[C@H]1O [Example 4, (7S,8R,9R)-2,3-Dimethyl-7-ethoxy-8-hydroxy-9-phenyl-7,8,9,10-tetrahydro-imidazo[1,2-h][1,7]naphthyridine]
melting point: 135 to 137 °C

CO[C@H]1c2ccn3c(C)c(C)nc3c2N[C@@H](c2ccccc2)[C@@H]1O [Example 1B, (7S,8S,9S)-2,3-Dimethyl-8-hydroxy-7-methoxy-9-phenyl-7,8,9,10-tetrahydro-imidazo[1,2-h][1,7]naphthyridine]
melting point: 161 to 162 °C

COCCO[C@@H]1c2ccn3c(C)c(C)nc3c2N[C@H](c2ccccc2)[C@H]1O [Soraprazan, (7R,8R,9R)-2,3-Dimethyl-8-hydroxy-7-(2-methoxyethoxy)-9-phenyl-7,8,9,10-tetrahydro-imidazo[1,2-h][1,7]naphthyridine]
ERG a-wave and b-wave amplitudes after injection, compared with vehicle [1]: decrease of the amplitudes is even more pronounced | ERG a-wave and b-wave amplitudes, recovery [1]: remained significantly lower than the base line | Lipofuscin and pigment content in cultured RPE cells [2]: decreased compared to the control | Lipofuscin and melanin in cultured human RPE cells [2]: reduced | Pigmented cells bearing degradational clusters ([3]; 30 μg/ml): 80.1%+/−22.6 | Conventional histopathology (RPE cells [4]; oral 6 mg/kg/day for 52 weeks): no alterations | Conventional histopathology (RPE cells [4]; oral 12 mg/kg/day for 52 weeks): no alterations | Monkeys showing migration of individual macrophages beneath the RPE and/or into the subretinal space (RPE cells [4]; oral 24 mg/kg/day for 52 weeks): Three out of 12 | Number of fluorescent lipofuscin particles per 50 μm RPE layer length (RPE): 15.0±8.3 particles per 50 μm | Lipofuscin granules in depigmented RPE cells (fluorescence, 360 nm illumination) (RPE cells [5]): completely or almost completely absent | Morphological changes in the neuroretina at the ultrastructural level ([6]; 24 mg/kg/day for 52 weeks): No morphological changes | Monkeys with loss of melanin and lipofuscin in RPE cells ([6]; oral 24 mg/kg/day, 52 weeks): 3 out of 7 | Ultrastructural alterations in the retina compared to untreated monkeys ([6]; oral 24 mg/kg/day, 52 weeks): could not be detected | Lipofuscin granules larger than 1 μm in diameter in RPE cells ([6]; treated animals): absent | Number of lipofuscin granules smaller than 0.4 μm in diameter in the cytoplasm of RPE cells ([6]; ultrathin sections, treated monkeys): 0.6±0.2 /50 μm^2

CO[C@H]1c2ccn3c(C)c(C)nc3c2N[C@H](c2ccccc2)[C@H]1O [Example 2A, (7S,8R,9R)-2,3-Dimethyl-8-hydroxy-7-methoxy-9-phenyl-7,8,9,10-tetrahydro-imidazo[1,2-h][1,7]naphthyridine]
melting point: 108 to 110 °C

CCO[C@@H]1c2ccn3c(C)c(C)nc3c2N[C@H](c2ccccc2)[C@H]1O [substance 1]
ERG a-wave and b-wave amplitudes after injection, compared with vehicle [1]: decrease of the amplitudes is even more pronounced | ERG a-wave and b-wave amplitudes, recovery [1]: recover almost completely | Lipofuscin and pigment content in cultured RPE cells [2]: even more clear and significant decrease | Lipofuscin and melanin in cultured human RPE cells [2]: reduced | Pigmented cells bearing degradational clusters ([3]; 50 μg/ml): 90.5%+/−21.3 | Number of fluorescent lipofuscin particles per 50 μm RPE layer length (RPE): 9.8±6.1 particles per 50 μm | Lipofuscin content of RPE cells ([7]; after three weeks exposure, versus control (FIG. 19)): much more lipofuscin under control conditions than under the influence of substance 1 | Number of phagocytosed latex beads ([7]; three weeks exposure, beads for four hours, versus untreated cells (FIG. 19)): phagocytosed more beads than untreated cells

CO[C@@H]1[C@@H](c2ccccc2)Nc2c(ccn3c(C)c(C)nc23)[C@H]1OC [Example 8, (7R,8R,9R)-2,3-Dimethyl-7,8-dimethoxy-9-phenyl-7,8,9,10-tetrahydro-imidazo[1,2-h][1,7]naphthyridine]
melting point: 155 to 156 °C

CO[C@@H]1c2ccn3c(C)c(C)nc3c2N[C@@H](c2ccccc2)[C@@H]1O [Example 2B, (7R,8S,9S)-2,3-Dimethyl-8-hydroxy-7-methoxy-9-phenyl-7,8,9,10-tetrahydro-imidazo[1,2-h][1,7]naphthyridine]
melting point: 171 to 172 °C
